Counter-ions that a name gives are not always drawn. Like-named read-outs stand apart in the source and are kept apart here.
Experiments:
Assay type in all cases: cell-based, rabbit
[1] = biological target: T1, VDCC currents in cerebral artery myocytes (Oryctolagus cuniculus, UniProt Q02343)
T1 construct: Vascular smooth muscle cells were enzymatically isolated from cerebral arteries as previously described; endogenous in cells; host or cells: freshly isolated cerebral artery myocytes from control and SAH (5 days post-surgery) New Zealand white rabbits
T1 sequence (Q02343 whole entry): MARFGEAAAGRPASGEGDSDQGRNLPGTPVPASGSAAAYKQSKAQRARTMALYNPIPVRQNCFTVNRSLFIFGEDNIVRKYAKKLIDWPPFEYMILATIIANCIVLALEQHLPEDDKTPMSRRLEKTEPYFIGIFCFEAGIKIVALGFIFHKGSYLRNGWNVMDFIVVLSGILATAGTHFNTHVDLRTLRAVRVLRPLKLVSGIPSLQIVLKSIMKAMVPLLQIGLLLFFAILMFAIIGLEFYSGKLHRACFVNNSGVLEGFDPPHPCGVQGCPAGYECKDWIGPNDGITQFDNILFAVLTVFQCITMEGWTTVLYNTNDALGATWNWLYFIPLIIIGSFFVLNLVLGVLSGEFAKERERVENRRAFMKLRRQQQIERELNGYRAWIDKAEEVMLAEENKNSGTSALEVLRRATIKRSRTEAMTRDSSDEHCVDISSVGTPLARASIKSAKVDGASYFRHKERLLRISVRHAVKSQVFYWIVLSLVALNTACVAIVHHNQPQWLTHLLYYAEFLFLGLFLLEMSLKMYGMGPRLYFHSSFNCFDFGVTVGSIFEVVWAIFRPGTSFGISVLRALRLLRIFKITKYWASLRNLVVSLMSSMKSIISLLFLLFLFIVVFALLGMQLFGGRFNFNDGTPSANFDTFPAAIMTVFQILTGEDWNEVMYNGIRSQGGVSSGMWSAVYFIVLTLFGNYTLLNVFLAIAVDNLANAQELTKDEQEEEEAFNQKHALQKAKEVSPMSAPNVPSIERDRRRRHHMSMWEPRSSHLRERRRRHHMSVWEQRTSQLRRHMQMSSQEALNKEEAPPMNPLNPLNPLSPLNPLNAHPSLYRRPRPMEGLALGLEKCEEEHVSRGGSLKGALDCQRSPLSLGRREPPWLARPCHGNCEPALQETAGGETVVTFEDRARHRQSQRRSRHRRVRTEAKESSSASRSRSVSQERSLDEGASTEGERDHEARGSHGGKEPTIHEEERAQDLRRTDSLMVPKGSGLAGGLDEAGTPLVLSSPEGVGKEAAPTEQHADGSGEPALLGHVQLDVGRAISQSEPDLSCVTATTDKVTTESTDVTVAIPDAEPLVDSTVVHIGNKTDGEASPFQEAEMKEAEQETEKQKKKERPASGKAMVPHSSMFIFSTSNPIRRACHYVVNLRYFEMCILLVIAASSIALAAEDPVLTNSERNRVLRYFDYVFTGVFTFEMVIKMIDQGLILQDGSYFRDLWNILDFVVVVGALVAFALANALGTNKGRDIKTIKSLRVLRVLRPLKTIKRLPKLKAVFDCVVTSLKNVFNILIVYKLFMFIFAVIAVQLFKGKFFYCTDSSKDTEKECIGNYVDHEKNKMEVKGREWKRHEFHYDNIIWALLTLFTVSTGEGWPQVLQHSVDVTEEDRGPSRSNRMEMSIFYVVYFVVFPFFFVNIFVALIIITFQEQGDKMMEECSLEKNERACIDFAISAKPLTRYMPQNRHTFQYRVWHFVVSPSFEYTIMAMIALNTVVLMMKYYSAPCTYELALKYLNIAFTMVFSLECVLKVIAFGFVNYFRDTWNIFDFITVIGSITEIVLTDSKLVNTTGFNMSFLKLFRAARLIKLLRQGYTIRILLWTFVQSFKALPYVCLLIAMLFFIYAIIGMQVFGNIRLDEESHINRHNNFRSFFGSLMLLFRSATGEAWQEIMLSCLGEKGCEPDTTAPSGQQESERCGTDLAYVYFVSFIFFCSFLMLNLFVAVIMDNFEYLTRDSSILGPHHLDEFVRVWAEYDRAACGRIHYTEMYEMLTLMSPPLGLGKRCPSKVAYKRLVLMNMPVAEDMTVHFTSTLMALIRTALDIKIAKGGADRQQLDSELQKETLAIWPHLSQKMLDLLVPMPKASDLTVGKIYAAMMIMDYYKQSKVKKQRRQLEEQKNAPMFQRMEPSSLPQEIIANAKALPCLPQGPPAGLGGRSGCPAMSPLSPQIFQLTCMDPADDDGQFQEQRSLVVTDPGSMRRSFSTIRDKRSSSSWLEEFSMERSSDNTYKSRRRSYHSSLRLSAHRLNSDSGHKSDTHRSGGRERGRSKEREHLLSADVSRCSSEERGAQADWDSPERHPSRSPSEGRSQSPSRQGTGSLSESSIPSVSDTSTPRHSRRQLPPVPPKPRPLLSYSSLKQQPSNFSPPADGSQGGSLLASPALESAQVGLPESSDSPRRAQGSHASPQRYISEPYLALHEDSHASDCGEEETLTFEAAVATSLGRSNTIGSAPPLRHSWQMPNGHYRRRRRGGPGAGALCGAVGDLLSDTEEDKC

[2] = biological target: T2, VDCC currents in cerebral artery myocytes (Oryctolagus cuniculus, UniProt P15381)
T2 construct: Vascular smooth muscle cells were enzymatically isolated from cerebral arteries as previously described; endogenous in cells; host or cells: freshly isolated cerebral artery myocytes from control and SAH (5 days post-surgery) New Zealand white rabbits
T2 sequence (P15381 1-2166 isoform P15381-4): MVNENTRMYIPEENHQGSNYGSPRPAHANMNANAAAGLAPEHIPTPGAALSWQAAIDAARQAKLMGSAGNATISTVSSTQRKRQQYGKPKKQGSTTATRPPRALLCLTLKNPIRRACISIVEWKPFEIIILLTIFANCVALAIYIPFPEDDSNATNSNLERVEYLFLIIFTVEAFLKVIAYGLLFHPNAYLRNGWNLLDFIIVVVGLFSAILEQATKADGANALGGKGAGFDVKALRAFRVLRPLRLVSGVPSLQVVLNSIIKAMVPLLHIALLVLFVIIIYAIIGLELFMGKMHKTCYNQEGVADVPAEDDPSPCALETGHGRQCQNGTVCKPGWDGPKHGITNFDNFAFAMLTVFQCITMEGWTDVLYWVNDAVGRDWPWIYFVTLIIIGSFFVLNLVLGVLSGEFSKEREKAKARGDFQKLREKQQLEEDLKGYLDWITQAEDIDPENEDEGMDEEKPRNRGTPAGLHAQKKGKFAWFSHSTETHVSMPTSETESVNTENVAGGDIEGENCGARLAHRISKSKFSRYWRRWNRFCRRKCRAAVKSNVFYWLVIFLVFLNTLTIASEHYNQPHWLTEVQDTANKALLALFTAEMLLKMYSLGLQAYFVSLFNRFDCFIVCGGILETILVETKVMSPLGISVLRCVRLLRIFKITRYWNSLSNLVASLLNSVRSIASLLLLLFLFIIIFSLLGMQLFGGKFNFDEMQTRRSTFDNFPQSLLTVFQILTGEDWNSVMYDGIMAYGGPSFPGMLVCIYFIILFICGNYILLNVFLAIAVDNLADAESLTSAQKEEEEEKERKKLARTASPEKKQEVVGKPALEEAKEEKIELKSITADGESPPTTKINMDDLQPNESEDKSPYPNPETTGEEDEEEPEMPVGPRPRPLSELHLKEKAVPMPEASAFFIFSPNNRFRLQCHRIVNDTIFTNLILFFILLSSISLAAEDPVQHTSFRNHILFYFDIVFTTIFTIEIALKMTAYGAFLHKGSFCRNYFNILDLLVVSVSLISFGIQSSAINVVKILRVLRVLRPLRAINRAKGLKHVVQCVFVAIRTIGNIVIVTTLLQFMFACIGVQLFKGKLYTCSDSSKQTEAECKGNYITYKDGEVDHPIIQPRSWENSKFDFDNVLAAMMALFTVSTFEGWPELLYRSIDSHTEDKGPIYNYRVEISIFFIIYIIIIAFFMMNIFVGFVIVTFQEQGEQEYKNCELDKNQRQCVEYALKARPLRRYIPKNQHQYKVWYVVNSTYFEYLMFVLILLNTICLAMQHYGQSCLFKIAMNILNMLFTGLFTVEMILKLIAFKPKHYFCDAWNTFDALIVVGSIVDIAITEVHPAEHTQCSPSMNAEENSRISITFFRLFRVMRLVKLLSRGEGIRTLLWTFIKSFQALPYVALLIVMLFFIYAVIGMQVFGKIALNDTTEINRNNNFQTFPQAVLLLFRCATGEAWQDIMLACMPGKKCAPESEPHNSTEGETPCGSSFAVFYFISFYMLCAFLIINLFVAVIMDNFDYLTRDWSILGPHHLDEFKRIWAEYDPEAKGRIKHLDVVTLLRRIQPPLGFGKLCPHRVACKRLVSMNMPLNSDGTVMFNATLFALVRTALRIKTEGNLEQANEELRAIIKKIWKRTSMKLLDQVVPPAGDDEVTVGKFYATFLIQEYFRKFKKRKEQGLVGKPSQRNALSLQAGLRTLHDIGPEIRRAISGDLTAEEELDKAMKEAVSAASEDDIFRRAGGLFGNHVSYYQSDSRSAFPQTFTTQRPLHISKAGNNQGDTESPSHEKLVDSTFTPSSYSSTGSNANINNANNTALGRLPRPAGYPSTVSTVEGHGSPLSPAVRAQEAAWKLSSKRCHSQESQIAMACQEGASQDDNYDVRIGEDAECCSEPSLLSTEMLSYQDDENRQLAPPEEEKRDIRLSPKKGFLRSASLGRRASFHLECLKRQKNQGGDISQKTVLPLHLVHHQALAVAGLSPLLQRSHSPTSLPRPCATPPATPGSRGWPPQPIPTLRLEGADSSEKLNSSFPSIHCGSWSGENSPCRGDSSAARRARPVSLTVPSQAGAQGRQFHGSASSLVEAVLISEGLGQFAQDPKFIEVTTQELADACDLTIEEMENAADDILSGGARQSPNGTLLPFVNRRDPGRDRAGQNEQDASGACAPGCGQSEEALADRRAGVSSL

[3] = system: small diameter cerebral arteries from control and SAH rabbits
[4] = system: small diameter cerebral arteries constricted by 60 mmol/L K+; experiment: tissue or blood
[5] = system: VDCC currents in cerebral artery myocytes

With “H-Gly-Val-Asp-Lys-Ala-Gly-Cys-Arg-Tyr-Met-Phe-Gly-Gly-Cys-Ser-Val-Asn-Asp-Asp-Cys-Cys-Pro-Arg-Leu-Gly-Cys-His-Ser-Leu-Phe-Ser-Tyr-Cys-Ala-Trp-Asp-Leu-Thr-Phe-Ser-Asp-OH (H-GVDKAGCRYMFGGCSVNDDCCPRLGCHSLFSYCAWDLTFSD-OH; cysteine pairing not given here) [SNX-482]” the “reduction of VDCC currents” value ([1]; myocytes from SAH animals, SNX-482 200 nmol/L) was “approximately 30%”, the “effect on VDCC currents” value ([2]; myocytes from control animals, SNX-482 200 nmol/L) was “no effect” and the “dilation of pressurized cerebral arteries” value ([3]; arteries from SAH animals, pressurized to 100 mmHg) was “approximately 30%”. For the same compound, the “effect on pressurized arteries” value ([3]; arteries from control animals, pressurized to 100 mmHg) was “no significant effect”, the “dilation of cerebral arteries in the absence of diltiazem” value ([4]; arteries constricted with 60 mmol/L K+, SNX-482 220 nmol/L alone) was “can dilate” and the “residual constriction observed in the presence of diltiazem” value ([4]; arteries cultured with oxyhemoglobin for 5 days, 60 mM K+, 1 mmol/L diltiazem, then SNX-482 220 nmol/L) was “effectively reversed”.
`[Cd]` [cadmium] was tested, and the “VDCC currents resistant to nifedipine (10 μmol/L)” value ([1]; SAH myocytes, cadmium 200 μmol/L, n=4, data not shown) was “abolished”.
With `COc1ccc([C@@H]2Sc3ccccc3N(CCN(C)C)C(=O)[C@@H]2OC(C)=O)cc1` (relative stereo) [diltiazem, benzothiazepin-4(5H)-one, 3-(acetyloxy)-5-[2-(dimethylamino)ethyl]-2,3-dihydro-2-(4-methoxyphenyl)-,(+)-cis-,monohydrochloride] the “current resistant to the L-type VDCC antagonist” value [5] was “approximately 20%”, the “block of membrane currents” value [2] was “completely blocked” and the “pressure-induced constriction at 100 mmHg” value ([3]; arteries from control animals, diltiazem 50 μmol/L) was “abolished”. The IC50 ([4]; Oryctolagus cuniculus, 120 h) was 16900 ± 6900 nM, the EC50 ([4]; Oryctolagus cuniculus, B164, 0 h, read-out: EC50 of diltiazem treatment of K+ induced constricted arteries, Day 0, −Oxy Hb) was 1020 ± 70 nM and the EC50 ([4]; Oryctolagus cuniculus, B164, 24 h, read-out: EC50 of diltiazem treatment of K+ induced constricted arteries, Day 1, +Oxy Hb) was 950 ± 140 nM. It also gave an EC50 ([4]; Oryctolagus cuniculus, B164, 24 h, read-out: EC50 of diltiazem treatment of K+ induced constricted arteries, Day 1, −Oxy Hb) of 760 ± 70 nM, an EC50 ([4]; Oryctolagus cuniculus, B164, 72 h, read-out: EC50 of diltiazem treatment of K+ induced constricted arteries, Day 3, +Oxy Hb) of 1070 ± 60 nM and an EC50 ([4]; Oryctolagus cuniculus, B164, 72 h, read-out: EC50 of diltiazem treatment of K+ induced constricted arteries, Day 3, −Oxy Hb) of 780 ± 120 nM. The EC50 ([4]; Oryctolagus cuniculus, B164, 120 h, read-out: EC50 of diltiazem treatment of K+ induced constricted arteries, Day 5, +Oxy Hb) was 16900 ± 6900 nM, the EC50 ([4]; Oryctolagus cuniculus, B164, 120 h, read-out: EC50 of diltiazem treatment of K+ induced constricted arteries, Day 5, −Oxy Hb) was 1100 ± 100 nM and the “reduction of K+-induced constriction” value ([4]; […], diltiazem 1 mmol/L, 60 mmol/L K+) was 99.7±0.4%.
In the case of ω-Agatoxin IVA, the “peak inward currents at +20 mV” value ([5]; SAH myocytes, 100 nmol/L) is reported as “did not alter”.
With ω-Conotoxin GVIA the “peak inward currents at +20 mV” value [5] was “did not alter”.
